Values after ≈ are worked out from the molar mass of the structure shown.
Tests used:
[1] = Cytotoxicity on RAW 264.7 macrophages (MTT, 48 h); type: cell-based; settings: mouse, RAW 264.7 macrophages, MTT, 48 hours, mean ± SD; read-out: RAW macrophage CC50
Description: (§1) To evaluate the cytotoxicity and antiamastigote assay, RAW 264.7 macrophages were cultured in Dulbecco’s modified Eagle medium (HiMedia, India), 10% heat-inactivated fetal bovine serum (FBS, Biowest) and cultured at 37°C (5% CO2). The macrophage cell growth was evaluated daily, and the cells were subcultured into a new flask containing fresh cell culture medium once they reached about 80%–90% confluency.
(§2) The cytotoxicity studies were performed using an immune cell line (RAW 264.7 macrophage) and non-immune epithelial cell line (HeLa) by 3-(4,5-dimethylthiazol-2-yl)-2,5-diphenyltetrazolium bromide (MTT) assay. A total of 7,000–10,000 cells/well were supplemented with different concentrations (2–64 μg/mL) of TLR7/8 agonists and incubated for 48 hours. MTT (1 mg/mL) (Hi-Media) was added to each well and kept for 4 hours. The formazan crystals formed were dissolved in 100 µL of dimethyl ulfoxide (DMSO), and absorbance at 550 nm was recorded using a microreader. AmB, MF, and Resiquimod were used as reference drugs. The percentage of cytotoxicity was calculated as [(absorbance of treated well − absorbance of blank) / (absorbance of untreated well − absorbance of blank)] × 100. The CC50 value was calculated with SPSS software. The SI of TLR7/8 agonists was obtained by calculating the ratio of CC50 (RAW 264.7 macrophage and HeLa cells) and IC50 (antipromastigote and antiamastigotes) ([21], [23]).

TLR7 = tested on: TLR7; parameters: method as in PMID 38741265, PMID 39411538; settings: Table 1, previously reported, cited from earlier work; for EC50: read-out: TLL7 EC50
[2] = Cytotoxicity on HeLa cells (MTT, 48 h); type: cell-based, human; settings: human, HeLa cells
Description: HeLa cells (human cervical epithelial cell line) were grown in RPMI-1640 (HiMedia) with 10% FBS and cultured at 37°C (5% CO2). The cells were evaluated daily using an inverted microscope for any contamination and subcultured after reaching confluency ([21]).
as §2

[3] = tested on: intracellular L. donovani amastigotes; assay: Antiamastigote activity in infected RAW 264.7 macrophages (Giemsa count, 48 h); type: cell-based; settings: Leishmania donovani, RAW264.7, intracellular amastigotes in RAW 264.7 macrophages, mean ± SD
Description: The macrophage cell growth was evaluated daily, and the cells were subcultured into a new flask containing fresh cell culture medium once they reached about 80%–90% confluency. […] Macrophages (2 × 10^4/mL) were plated on round coverslips placed in 24-well plates for 24 hours in a CO2 incubator (5% CO2) at 37°C. The coverslips were washed thrice with serum-free medium to remove the non-adherent cells. […] Infected macrophages were incubated with different concentrations of TLR7/8 agonists for 48 hours. After 48 hours, the coverslips were washed with phosphate-buffered saline (PBS), dried, fixed with chilled methanol, Giemsa-stained, and examined under a light microscope. A minimum of 200 macrophages were counted per coverslip to determine the number of amastigotes.

[4] = tested on: L. donovani promastigotes; assay: In vitro antipromastigote activity (trypan blue count, 48 h); type: cell-based, Leishmania donovani MHOM/IN/80/DD8; settings: Leishmania donovani, mean ± SD
Description: M199 was added with 0.2% sodium bicarbonate and 10% heat-inactivated fetal bovine serum (FBS; Biowest, France) + antibiotics (gentamycin and streptomycin) by serial subcultures after every 48-72 hours by transferring 0.5-1.0 mL of culture supernatant in fresh medium and kept in a biological oxygen demand (BOD) incubator ([20]). […] The percentage growth inhibition was calculated using the following formulas: Percentage viability=No. of live cells in treated well/No. of live cells in blank well×100 Percentage growth inhibition=100 - percentage viability. The IC50 values were calculated using SPSS software, version 25 ([22]).

Leishmania infantum = settings: read-out: IC50 against Leishmania infantum; cited from earlier work
Leishmania major = tested on: Leishmania major; parameters: method as in PMID 33531168; settings: 80 µM concentration; cited from earlier work
RAW 264.7 macrophages = assay: Cytotoxicity on RAW 264.7 macrophages (MTT, 48 h); type: cell-based; settings: MTT, 48 hours, mean ± SD
Description: as §1, §2

TLR8 = tested on: TLR8; parameters: method as in PMID 38741265, PMID 39411538; settings: Table 1; previously reported; cited from earlier work
L. infantum = tested on: L. infantum; parameters: method as in PMID 33851916; settings: read-out: IC50 (antiamastigote) against L. infantum; cited from earlier work
[5] = MTT, 48 hours, mean ± SD, read-out: HeLa cell CC50
[6] = Fig 4 heat map, mean CC50, unit inferred, read-out: CC50, heat map, Hela Cells

Row | IC50 [3] [µg/mL] | IC50 [4] [µg/mL] | SMILES | CC50 at 48 h [1] [µg/mL] | EC50 (TLR7) [nM] | CC50 at 48 h [2, 5] [µg/mL] | EC50 (TLR8) [nM] | also measured
1 | 7.4 ± 0.52 (≈ 20.5 µM) | 6.5 ± 0.4 (≈ 18 µM) | CCCCc1nc2c(N)nc3ccccc3c2n1Cc1ccc(CO)cc1 [compound 4] | 6.75 ± 0.2 (≈ 18.7 µM) | 220 ± 20 | 4.75 ± 0.2 (≈ 13.2 µM) |  | 
2 |  |  | CC(C)Cn1cnc2c(N)nc3ccccc3c21 [imiquimod] |  |  |  |  | IC50 (Leishmania infantum): 235 ± 10 nM
3 |  |  | COc1cc(/C=C/C(=O)CC(=O)/C=C/c2ccc(O)c(OC)c2)ccc1O [curcumin] |  |  |  |  | cell death (Leishmania major): 82.5%
4 | 6.6 ± 0.4 (≈ 27.5 µM) | 4.63 ± 0.45 (≈ 19.3 µM) | CCCCn1cc2c(n1)c(N)nc1ccccc12 [compound 11] | 6.69 ± 0.22 (≈ 27.8 µM) | 190 | 4.67 ± 0.2 (≈ 19.4 µM) | 56 | RAW macrophage CC50 (RAW 264.7 macrophages): 6.67 ± 0.2 µg/mL; CC50 at 48 h [2, 6]: 4.88 µg/mL (≈ 20.3 µM)
5 | 7.86 ± 0.7 (≈ 18.3 µM) | 5.8 ± 0.4 (≈ 13.5 µM) | CCCCNC(=O)c1ccc(Cn2c(CCCC)nc3c(N)nc4ccccc4c32)cc1 [compound 3] | 10.9 ± 0.2 (≈ 25.4 µM) | 350 ± 60 | 7.46 ± 0.5 (≈ 17.4 µM) |  | 
6 |  |  | CC(=O)OC1C(O)CC(OC2C(O)CC(OC3C(O)CC(OC4CCC5(C)C(CCC6C5CCC5(C)C(C7=CC(=O)OC7)CCC65O)C4)OC3C)OC2C)OC1C (stereo not drawn) [β-acetyl-digitoxin] |  |  |  |  | IC50 (L. infantum): 20900 ± 2600 nM
7 | 6.46 ± 0.47 (≈ 18 µM) | 4.53 ± 0.58 (≈ 12.6 µM) | CCCCc1nc2c(N)nc3ccccc3c2n1Cc1cccc(CN)c1 [compound 9] | 6.67 ± 0.3 (≈ 18.6 µM) | […] | 4.67 ± 0.3 (≈ 13 µM) | […] | 
8 | 5.4 ± 0.79 (≈ 18.2 µM) | 3.4 ± 0.79 (≈ 11.5 µM) | CCCCc1nc2c(N)nc3ccccc3c2n1CC(C)C [compound 1] | 9.54 ± 0.6 (≈ 32.2 µM) | 3200 ± 60 | 7.54 ± 0.6 (≈ 25.4 µM) | 15000 ± 30 | 
9 | 3.1 ± 0.9 (≈ 6.75 µM) | 2.21 ± 0.6 (≈ 4.81 µM) | CCCCc1nc2c(N)nc3ccccc3c2n1Cc1cccc(CNC(=O)OC(C)(C)C)c1 [compound 8] | 9.5 ± 1 (≈ 20.7 µM) |  | 8.86 ± 0.5 (≈ 19.3 µM) |  | TLL7 EC50 (TLR7): Active; CC50 at 48 h [2, 6]: 8.8 µg/mL (≈ 19.1 µM); TLR8 EC50 (TLR8): Active

Reference: PMC12604490, “Dual immunomodulatory and antileishmanial potential of TLR7/8 agonists against Leishmania donovani” (Infection and Immunity, 2025)
